Results: PMC7873226, “Molecular mechanism and structural basis of small-molecule modulation of the gating of acid-sensing ion channel 1” (Communications Biology, 2021)
Positions count from the first letter of the chain named.

Columns and labels:
Type in all cases: cell-based
[1] = target: T1, rASIC1a F98A (Rattus norvegicus, UniProt P55926, F98A); assay: Inhibition of pH 6.0-induced current of mutant channel F98A
T1 construct: expressed in transfected cells; host or cells: CHO cells, transient transfection (GFP cDNA co-transfected separately)
T1 sequence (P55926 1-526 F98A): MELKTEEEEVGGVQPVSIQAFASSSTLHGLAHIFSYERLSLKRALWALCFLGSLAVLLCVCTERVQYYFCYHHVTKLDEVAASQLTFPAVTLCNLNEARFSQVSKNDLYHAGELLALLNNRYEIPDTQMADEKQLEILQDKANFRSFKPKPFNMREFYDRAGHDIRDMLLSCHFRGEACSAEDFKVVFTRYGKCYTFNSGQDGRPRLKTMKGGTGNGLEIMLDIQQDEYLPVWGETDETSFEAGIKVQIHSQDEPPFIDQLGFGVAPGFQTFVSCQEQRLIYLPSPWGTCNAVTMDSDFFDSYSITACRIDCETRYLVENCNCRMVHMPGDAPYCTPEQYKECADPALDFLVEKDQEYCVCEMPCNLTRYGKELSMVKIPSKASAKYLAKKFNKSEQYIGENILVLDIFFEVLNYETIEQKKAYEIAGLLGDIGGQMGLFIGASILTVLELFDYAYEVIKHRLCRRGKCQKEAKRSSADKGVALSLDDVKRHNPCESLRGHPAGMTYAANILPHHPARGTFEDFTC
Method: (§1) Chinese Hamster Ovary (CHO) cells stably expressing rat ASIC1a were cultured in Ham’s F12, supplemented with 10% FBS, 1% penicillin–streptomycin and 500 µg/mL G418 and incubated at 37 °C with 5% CO2. Transient transfections of rASIC1a and cASIC1 wild-type or mutant channels in CHO cells were performed with Lipofectamine 3000 (Thermo Fisher Scientific) according to the manufacturer’s recommendations. The green fluorescent protein (GFP) cDNA (at 1/10 the amount of channel cDNA) was co-transfected with channel cDNA to aid the identification of transfected cells under the microscope in patch clamp experiments. All cDNAs were sequence verified.
(§2) Cells were freshly dissociated with CellStripper (Corning) and dispersed in a chamber on the stage of an inverted microscope. […]
(§3) All recordings were performed at room temperature using an Axopatch 200B amplifier and pClamp 11 software (Molecular Devices). Currents were measured by whole-cell patch clamp, digitized at 10 kHz and lowpass filtered at 2 kHz. […] Responses were elicited by rapid perfusion of acidic solutions using the SF-77B Fast-Step Perfusion device (Warner Instruments) for 40 ms once every 30 s (unless indicated otherwise) and recorded till steady state was reached. […]

[2] = target: T2, rASIC1a Y340A (Rattus norvegicus, UniProt P55926, Y340A); assay: Inhibition of pH 6.0-induced current of mutant channel Y340A
T2 construct: expressed in transfected cells; host or cells: CHO cells, transient transfection (GFP cDNA co-transfected separately)
T2 sequence (P55926 1-526 Y340A): T1 sequence (P55926 1-526 F98A) with A98F, Y340A
Method: as §1, §2, §3

[3] = target: T3, ASIC2a (Rattus norvegicus, UniProt Q62962); assay: Activity at ASIC2a; conditions: inactive at ASIC2a
T3 sequence (Q62962 1-512): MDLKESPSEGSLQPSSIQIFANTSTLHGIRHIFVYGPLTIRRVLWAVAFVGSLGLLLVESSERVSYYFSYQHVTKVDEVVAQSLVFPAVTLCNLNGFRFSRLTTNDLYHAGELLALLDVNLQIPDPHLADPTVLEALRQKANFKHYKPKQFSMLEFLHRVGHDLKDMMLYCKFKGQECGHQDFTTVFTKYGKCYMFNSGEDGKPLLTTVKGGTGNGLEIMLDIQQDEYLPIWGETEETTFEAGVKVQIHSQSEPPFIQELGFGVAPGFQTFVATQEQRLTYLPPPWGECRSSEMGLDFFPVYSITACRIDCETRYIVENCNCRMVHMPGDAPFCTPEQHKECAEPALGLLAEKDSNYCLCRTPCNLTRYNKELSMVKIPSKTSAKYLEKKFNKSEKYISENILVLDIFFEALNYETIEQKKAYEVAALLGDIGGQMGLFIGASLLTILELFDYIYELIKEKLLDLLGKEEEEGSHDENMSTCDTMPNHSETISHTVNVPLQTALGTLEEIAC

IC50 [1] [nM] | IC50 [2] [nM] | IC50 [3] [nM] | SMILES
726 ± 356 | 260 ± 89.8 | > 50000 | COc1ccc(Oc2ccc(-c3nc4cc(C(=N)N)ccc4[nH]3)cc2)cc1OC [JNJ-799760]
626 ± 11 | 572 ± 177 | > 50000 | Cc1cc(N2CC(Oc3cc(F)c4c(N)n[nH]c4c3)C2)c(F)cn1 [JNJ-67869386]
